Columns and labels:
[1] = Clearance in beagle dog at 1 mg/kg, iv; format: ADME, organism-based, Canis lupus familiaris; settings: in vivo
[2] = Plasma protein binding in human; format: ADME, cell-free; settings: read-out: PPB (converted)
[3] = Half life in rat hepatocytes; format: ADME, cell-based, Hepatocyte
[4] = Half life in rat liver microsomes; format: ADME
[5] = Mean residence time in beagle dog; format: ADME, organism-based, Canis lupus familiaris; settings: in vivo
[6] = Oral bioavailability in Sprague-Dawley rat at 2 mg/kg; format: ADME, organism-based; settings: in vivo
[7] = Volume of distribution at steady state in beagle dog at 1 mg/kg, iv; format: ADME, organism-based, Canis lupus familiaris; settings: in vivo, read-out: Vdss
[8] = Plasma concentration in Sprague-Dawley rat plasma at 1 mg/kg, po after 1 hr; format: ADME, organism-based
[9] = Ratio of drug level in brain to plasma in Sprague-Dawley rat at 1 mg/kg, iv after 0.5 hrs; format: ADME, organism-based; settings: read-out: BPR
[10] = Mean residence time in Sprague-Dawley rat; format: ADME, organism-based; settings: in vivo
[11] = target: Voltage-gated inwardly rectifying potassium channel KCNH2 (Homo sapiens, UniProt Q12809); assay: Inhibition of human ERG
Chain of Voltage-gated inwardly rectifying potassium channel KCNH2 (Q12809 whole entry): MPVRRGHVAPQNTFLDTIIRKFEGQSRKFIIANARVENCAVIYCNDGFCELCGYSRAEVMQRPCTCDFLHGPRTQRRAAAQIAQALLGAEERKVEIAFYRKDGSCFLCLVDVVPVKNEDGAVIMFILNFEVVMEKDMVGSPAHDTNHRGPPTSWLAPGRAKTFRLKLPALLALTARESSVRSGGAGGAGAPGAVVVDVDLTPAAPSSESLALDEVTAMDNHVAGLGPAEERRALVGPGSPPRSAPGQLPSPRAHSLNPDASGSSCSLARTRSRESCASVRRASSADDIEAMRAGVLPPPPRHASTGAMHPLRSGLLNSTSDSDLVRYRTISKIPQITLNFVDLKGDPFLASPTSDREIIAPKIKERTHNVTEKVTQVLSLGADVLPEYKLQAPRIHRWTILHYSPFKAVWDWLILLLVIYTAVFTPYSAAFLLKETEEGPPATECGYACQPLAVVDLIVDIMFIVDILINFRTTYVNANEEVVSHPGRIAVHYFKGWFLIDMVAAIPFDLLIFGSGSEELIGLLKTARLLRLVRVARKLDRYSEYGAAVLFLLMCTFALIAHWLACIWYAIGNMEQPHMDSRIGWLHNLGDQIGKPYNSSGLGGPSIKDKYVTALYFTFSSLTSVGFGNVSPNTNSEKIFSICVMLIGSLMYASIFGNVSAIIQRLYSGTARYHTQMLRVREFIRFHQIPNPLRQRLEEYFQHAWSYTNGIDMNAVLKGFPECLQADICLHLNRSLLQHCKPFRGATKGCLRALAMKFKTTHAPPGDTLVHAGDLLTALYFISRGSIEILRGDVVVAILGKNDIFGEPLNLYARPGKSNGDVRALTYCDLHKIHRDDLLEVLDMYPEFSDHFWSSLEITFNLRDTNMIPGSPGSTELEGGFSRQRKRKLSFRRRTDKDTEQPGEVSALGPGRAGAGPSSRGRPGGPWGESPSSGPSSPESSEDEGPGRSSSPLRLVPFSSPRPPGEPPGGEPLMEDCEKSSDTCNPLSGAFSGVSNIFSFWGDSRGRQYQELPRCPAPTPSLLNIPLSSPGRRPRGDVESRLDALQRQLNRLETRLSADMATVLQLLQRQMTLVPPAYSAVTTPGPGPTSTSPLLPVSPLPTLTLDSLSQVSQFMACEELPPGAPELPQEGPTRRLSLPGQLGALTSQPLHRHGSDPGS

[12] = Plasma protein binding in dog; format: ADME, cell-free, Canis lupus familiaris; settings: read-out: PPB (converted)
Rattus norvegicus [13] = assay: Antiinsomnic activity in CD1 rat assessed as reduction of time spent awake at 3 to 10 mg/kg, po administered at circadian time 18 hrs measured after 3 hrs; format: functional; parameters: scale not given: the % may be the effect or the level left
[14] = Efflux ratio of the compound in human Caco2 cells; format: ADME, cell-based; settings: Caco-2
[15] = target: T1, Orexin/Hypocretin receptor type 1 (Homo sapiens) (UniProt O43613); settings: CHO
T1 sequence (whole entry): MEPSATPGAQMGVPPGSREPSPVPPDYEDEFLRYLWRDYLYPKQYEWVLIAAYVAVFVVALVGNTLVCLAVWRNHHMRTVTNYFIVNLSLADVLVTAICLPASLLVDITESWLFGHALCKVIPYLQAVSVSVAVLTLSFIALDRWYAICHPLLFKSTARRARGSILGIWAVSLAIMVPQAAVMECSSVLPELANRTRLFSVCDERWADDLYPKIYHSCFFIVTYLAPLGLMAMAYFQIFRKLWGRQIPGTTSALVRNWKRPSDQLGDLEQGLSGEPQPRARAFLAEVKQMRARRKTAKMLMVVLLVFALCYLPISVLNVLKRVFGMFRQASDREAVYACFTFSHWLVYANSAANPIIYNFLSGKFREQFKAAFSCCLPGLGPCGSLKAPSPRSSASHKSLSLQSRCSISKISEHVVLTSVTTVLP
Description: Antagonist activity at human orexin receptor-1 expressed in CHO cells assessed as orexin-A-induced ERK1/2 phosphorylation after 2 hrs by fluorescence assay

Canis familiaris = assay: AUC (infinity) in beagle dog at 1 mg/kg, po; format: ADME, organism-based, Canis lupus familiaris; parameters: dose 1 mg/kg, route oral, time infinity; settings: in vivo
[16] = Ratio of drug level in cerebrospinal fluid to brain in Sprague-Dawley rat at 1 mg/kg, iv after 0.5 hrs; format: ADME, organism-based, CSF/Brain; settings: in vivo
[17] = target: T2, Orexin receptor type 2 (Homo sapiens) (UniProt O43614)
T2 sequence (whole entry): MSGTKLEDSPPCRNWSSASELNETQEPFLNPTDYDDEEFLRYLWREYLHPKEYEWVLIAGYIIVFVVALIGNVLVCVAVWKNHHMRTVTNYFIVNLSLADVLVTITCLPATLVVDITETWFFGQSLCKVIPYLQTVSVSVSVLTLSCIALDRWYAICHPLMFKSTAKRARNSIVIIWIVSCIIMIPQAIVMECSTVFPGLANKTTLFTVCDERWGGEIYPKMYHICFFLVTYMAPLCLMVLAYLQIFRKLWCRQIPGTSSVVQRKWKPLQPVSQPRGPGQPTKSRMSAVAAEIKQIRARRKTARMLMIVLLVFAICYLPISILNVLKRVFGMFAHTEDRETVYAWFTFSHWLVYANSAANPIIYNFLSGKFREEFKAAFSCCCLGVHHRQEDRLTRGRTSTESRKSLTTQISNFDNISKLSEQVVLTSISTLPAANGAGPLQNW
Description: Binding affinity to orexin receptor-2 (unknown origin) assessed as dissociation half-life by SPR assay

Rattus norvegicus [18] = assay: Antiinsomnic activity in CD1 rat assessed as reduction of time taken for latency to first REM episode at 10 mg/kg, po administered at 18 hrs after circadian time; format: functional; parameters: scale not given: the % may be the effect or the level left
[19] = target: T2, Orexin receptor type 2 (Homo sapiens); settings: CHO
Description: Antagonist activity at human orexin receptor-2 expressed in CHO cells assessed as orexin-A-induced ERK1/2 phosphorylation after 2 hrs by fluorescence assay

[20] = Half life in beagle dog at 1 mg/kg, po; format: ADME, organism-based, Canis lupus familiaris; settings: in vivo
Orexin receptor type 2 = target: T3, Orexin receptor type 2 (Homo sapiens, UniProt O43614); assay: Displacement of [3H]EMPA from human orexin receptor-2 expressed in HEK293 cells after 90 mins by scintillation counting; format: cell-based
T3 sequence (O43614 whole entry): T2 sequence (whole entry)

Cytochrome P450 2D6 = Cytochrome P450 2D6 (Homo sapiens, UniProt P10635); assay: Inhibition of CYP2D6 (unknown origin); format: ADME
Chain of Cytochrome P450 2D6 (P10635 whole entry): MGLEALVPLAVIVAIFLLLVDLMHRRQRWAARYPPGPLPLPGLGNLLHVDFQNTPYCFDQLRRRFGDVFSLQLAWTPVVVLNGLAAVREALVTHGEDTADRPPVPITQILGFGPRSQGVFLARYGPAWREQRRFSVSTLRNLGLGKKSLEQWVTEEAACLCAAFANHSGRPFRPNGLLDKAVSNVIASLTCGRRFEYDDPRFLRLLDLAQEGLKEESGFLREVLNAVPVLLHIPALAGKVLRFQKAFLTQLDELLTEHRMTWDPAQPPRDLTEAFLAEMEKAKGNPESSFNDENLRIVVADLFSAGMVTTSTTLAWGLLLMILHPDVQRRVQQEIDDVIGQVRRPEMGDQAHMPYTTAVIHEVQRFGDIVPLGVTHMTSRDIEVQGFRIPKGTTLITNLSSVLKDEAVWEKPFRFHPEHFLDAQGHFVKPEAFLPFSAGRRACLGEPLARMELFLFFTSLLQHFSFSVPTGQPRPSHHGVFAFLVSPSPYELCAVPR

[21] = target: T2, Orexin receptor type 2 (Homo sapiens); remark: listed apart in the source
Description: Binding affinity to orexin receptor-2 (unknown origin) assessed as dissociation half-life by Motulsky-Mahan radioligand binding assay

Rattus norvegicus [22] = assay: Antiinsomnic activity in CD1 rat assessed as increase of NREM sleep at 10 mg/kg, po administered at circadian time 18 hrs measured after 3 hrs; format: functional
[23] = Tmax in beagle dog at 1 mg/kg, po; format: ADME, organism-based, Canis lupus familiaris; settings: in vivo
Salmonella typhimurium [24] = assay: Genotoxicity in Salmonella typhimurium by Ames test in absence of S9 fraction; format: toxicity, organism-based; settings: salmonella enterica subsp. enterica serovar typhimurium
Cytochrome P450 2C9 = Cytochrome P450 2C9 (Homo sapiens, UniProt P11712); assay: Inhibition of CYP2C9 (unknown origin); format: ADME
Chain of Cytochrome P450 2C9 (P11712 whole entry): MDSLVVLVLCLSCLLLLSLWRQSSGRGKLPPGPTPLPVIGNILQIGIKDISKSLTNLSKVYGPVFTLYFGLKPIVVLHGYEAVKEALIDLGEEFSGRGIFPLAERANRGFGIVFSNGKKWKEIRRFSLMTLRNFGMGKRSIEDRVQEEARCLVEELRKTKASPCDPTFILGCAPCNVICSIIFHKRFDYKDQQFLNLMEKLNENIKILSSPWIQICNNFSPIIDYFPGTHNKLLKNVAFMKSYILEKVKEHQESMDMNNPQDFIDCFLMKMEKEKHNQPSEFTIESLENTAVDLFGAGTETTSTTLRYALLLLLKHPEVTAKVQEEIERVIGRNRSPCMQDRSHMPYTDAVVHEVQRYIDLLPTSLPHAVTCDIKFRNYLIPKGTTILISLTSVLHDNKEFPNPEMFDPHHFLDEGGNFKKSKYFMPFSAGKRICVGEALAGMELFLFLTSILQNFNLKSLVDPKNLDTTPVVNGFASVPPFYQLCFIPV

Rattus norvegicus [25] = assay: Antiinsomnic activity in CD1 rat assessed as increase of REM sleep at 3 mg/kg, po administered at circadian time 18 hrs measured after 3 hrs; format: functional
[26] = Half life in cynomolgus monkey hepatocytes; format: ADME, cell-based, Macaca fascicularis, Hepatocyte
[27] = target: T4, Orexin/Hypocretin receptor type 1 (Homo sapiens, UniProt O43613); assay: Displacement of [3H]-4-(2,6-Difluoro-4-methoxybenzyl)-2-(5,6-dimethoxypyridin-3-yl)-2H-1,2,4-benzothiadiazin-3(4H)-one 1,1-dioxide from orexin receptor-1 (unknown origin) after 90 mins
T4 sequence (O43613 whole entry): T1 sequence (whole entry)

Cytochrome P450 2C8 = target: T5, Cytochrome P450 2C8 (Homo sapiens, UniProt P10632); assay: Inhibition of CYP2C8 (unknown origin); format: ADME
T5 sequence (P10632 whole entry): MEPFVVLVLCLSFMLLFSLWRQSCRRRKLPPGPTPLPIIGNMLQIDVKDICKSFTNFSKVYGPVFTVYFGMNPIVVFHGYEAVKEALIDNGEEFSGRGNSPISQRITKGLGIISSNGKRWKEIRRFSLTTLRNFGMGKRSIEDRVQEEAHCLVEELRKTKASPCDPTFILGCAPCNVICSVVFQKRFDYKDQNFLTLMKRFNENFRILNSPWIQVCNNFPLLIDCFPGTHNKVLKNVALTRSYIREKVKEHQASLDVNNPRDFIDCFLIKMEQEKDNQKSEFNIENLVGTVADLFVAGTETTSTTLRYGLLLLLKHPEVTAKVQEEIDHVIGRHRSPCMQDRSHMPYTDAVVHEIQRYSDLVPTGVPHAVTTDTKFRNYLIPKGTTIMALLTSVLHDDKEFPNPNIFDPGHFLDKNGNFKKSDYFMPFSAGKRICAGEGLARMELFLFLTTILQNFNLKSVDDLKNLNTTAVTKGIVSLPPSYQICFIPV

[28] = Half life in human hepatocytes; format: ADME, cell-based, Hepatocyte
Salmonella typhimurium [29] = assay: Genotoxicity in Salmonella typhimurium by Ames test in presence of S9 fraction; format: toxicity, organism-based; settings: salmonella enterica subsp. enterica serovar typhimurium

- clearance [1]: 13 mL/min/kg
- fraction unbound [2]: 0.007
- half-life [3]: > 1.83 h
- half-life [4]: 0.383 h
- MRT [5]: 4 h
- bioavailability [6]: 66%
- Vd [7]: 3 L/kg
- concentration at 1 h [8]: 72 ng/mL
- Kp at 0.5 h [9]: 0.49
- MRT [10]: 1.9 h
- fraction unbound [12]: 0.019
- efflux ratio [14]: 0.7
- pKb [15]: 6.6
- AUC (Canis familiaris): 2440 ng·h/mL
- Ratio [16]: 0.01
- T1/2 [17]: 4.2 min
- pKb [19]: 7.3
- half-life [20]: 7.1 h
- Ki (Orexin receptor type 2): 0.00251 µM
- IC50 (Cytochrome P450 2D6): > 10 µM
- T1/2 [21]: 7.6 min
- Tmax [23]: 0.4 h
- IC50 (Cytochrome P450 2C9): > 10 µM
- half-life [26]: > 4.17 h
- Ki [27]: 0.02 µM
- IC50 (Cytochrome P450 2C8): > 10 µM
- half-life [28]: > 4.17 h
Compound: COc1cc(N2C(=O)N(Cc3c(F)cc(F)cc3F)c3ncccc3S2(=O)=O)cnc1OC
- IC50 [11]: > 10 µM
- Activity (Rattus norvegicus [13]): 18.5%
- Activity (Rattus norvegicus [18]): 35%
- Activity (Rattus norvegicus [22]): 30.7%
- Activity (Salmonella typhimurium [24]): Non-toxic
- Activity (Rattus norvegicus [25]): 70.6%
- Activity (Salmonella typhimurium [29]): Non-toxic

Reference: ChEMBL document CHEMBL3739366, “Discovery of HTL6641, a dual orexin receptor antagonist with differentiated pharmacodynamic properties” (Medchemcomm, 2015)
